Key:
Assay in all cases: relative viability (nuclei count vs DMSO), 5 days (fraction); higher = more cells survive
[1] = tested on: NCI-H1944
Procedure, shortened: (§1)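 Medians of duplicate plates are given as relative viability. That measure is the nuclei count in treated wells divided by the count in vehicle wells. Counts were taken on 4× images of lung cancer cell lines in 1536-well plates, 5 days after pin-tool dosing the day after seeding with one drug alone or a fixed anchor-drug dose plus five library-drug doses (not always all listed) in √10 steps.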

[2] = tested on: HCC-827
Procedure, shortened: as §1

[3] = tested on: NCI-H1993
Procedure, shortened: as §1

[4] = tested on: LCLC-103H
Procedure, shortened: as §1

[5] = tested on: NCI-H1792
Procedure, shortened: as §1

[6] = tested on: SW 900
Procedure, shortened: as §1

[7] = tested on: LOU-NH91
Procedure, shortened: as §1

[8] = tested on: NCI-H1975
Procedure, shortened: as §1

[9] = tested on: A-427
Procedure, shortened: as §1

[10] = tested on: H3255
Procedure, shortened: as §1

[11] = tested on: NCI-H2170
Procedure, shortened: as §1

[12] = tested on: HCC-44
Procedure, shortened: as §1

[13] = tested on: NCI-H1793
Procedure, shortened: as §1

[14] = tested on: LXF-289
Procedure, shortened: as §1

[15] = tested on: NCI-H358
Procedure, shortened: as §1

[16] = tested on: NCI-H2087
Procedure, shortened: as §1

[17] = tested on: NCI-H522
Procedure, shortened: as §1

[18] = tested on: NCI-H1915
Procedure, shortened: as §1

With `Cc1cn(-c2cc(NC(=O)c3ccc(C)c(Nc4nccc(-c5cccnc5)n4)c3)cc(C(F)(F)F)c2)cn1` [Nilotinib] + NC(=O)Nc1cc(-c2cccc(F)c2)sc1C(=O)N[C@H]1CCCNC1 [AZD7762] (partner 0.2 µM) the relative viability ([1]; first compound 0.001 µM) was 0.436, the relative viability ([1]; first compound 0.003162 µM) was 0.75 and the relative viability ([1]; first compound 0.01 µM) was 0.41. It also gave a relative viability ([1]; first compound 0.03162 µM) of 0.285, a relative viability ([1]; first compound 0.1 µM) of 0.299 and a relative viability ([2]; first compound 0.001 µM) of 0.172. It also gave a relative viability ([2]; first compound 0.003162 µM) of 0.158, a relative viability ([2]; first compound 0.03162 µM) of 0.177 and a relative viability ([2]; first compound 0.1 µM) of 0.204. For the same molecule, the relative viability ([3]; first compound 0.001 µM) was 0.875, the relative viability ([3]; first compound 0.003162 µM) was 0.803 and the relative viability ([3]; first compound 0.01 µM) was 0.819. For the same molecule, the relative viability ([3]; first compound 0.03162 µM) was 0.754, the relative viability ([3]; first compound 0.1 µM) was 0.559 and the relative viability ([4]; first compound 0.001 µM) was 0.861. The relative viability ([4]; first compound 0.003162 µM) was 0.883, the relative viability ([4]; first compound 0.01 µM) was 0.845 and the relative viability ([4]; first compound 0.03162 µM) was 0.705. For the same molecule, the relative viability ([4]; first compound 0.1 µM) was 0.477, the relative viability ([5]; first compound 0.001 µM) was 0.483 and the relative viability ([5]; first compound 0.003162 µM) was 0.638. It also gave a relative viability ([5]; first compound 0.01 µM) of 0.467, a relative viability ([5]; first compound 0.03162 µM) of 0.385 and a relative viability ([5]; first compound 0.1 µM) of 0.263. It also gave a relative viability ([6]; first compound 0.003162 µM) of 0.479, a relative viability ([6]; first compound 0.01 µM) of 0.575 and a relative viability ([6]; first compound 0.03162 µM) of 0.369. The relative viability ([6]; first compound 0.1 µM) was 0.304, the relative viability ([7]; first compound 0.001 µM) was 0.748 and the relative viability ([7]; first compound 0.003162 µM) was 0.742. The relative viability ([7]; first compound 0.01 µM) was 0.772, the relative viability ([7]; first compound 0.03162 µM) was 0.65 and the relative viability ([7]; first compound 0.1 µM) was 0.684. For the same molecule, the relative viability ([8]; first compound 0.001 µM) was 0.622, the relative viability ([8]; first compound 0.003162 µM) was 0.571 and the relative viability ([8]; first compound 0.01 µM) was 0.744. For the same molecule, the relative viability ([8]; first compound 0.03162 µM) was 0.613, the relative viability ([8]; first compound 0.1 µM) was 0.667 and the relative viability ([9]; first compound 0.001 µM) was 0.716. It also gave a relative viability ([9]; first compound 0.003162 µM) of 0.501, a relative viability ([9]; first compound 0.01 µM) of 0.681 and a relative viability ([9]; first compound 0.03162 µM) of 0.535. It also gave a relative viability ([9]; first compound 0.1 µM) of 0.338, a relative viability ([10]; first compound 0.001 µM) of 0.827 and a relative viability ([10]; first compound 0.003162 µM) of 0.65. It also gave a relative viability ([10]; first compound 0.01 µM) of 0.908, a relative viability ([10]; first compound 0.03162 µM) of 0.811 and a relative viability ([10]; first compound 0.1 µM) of 0.733. The relative viability ([11]; first compound 0.001 µM) was 0.744, the relative viability ([11]; first compound 0.003162 µM) was 1.32 and the relative viability ([11]; first compound 0.01 µM) was 0.856. The relative viability ([11]; first compound 0.03162 µM) was 0.602, the relative viability ([11]; first compound 0.1 µM) was 0.758 and the relative viability ([12]; first compound 0.001 µM) was 0.969. It also gave a relative viability ([12]; first compound 0.003162 µM) of 1, a relative viability ([12]; first compound 0.01 µM) of 0.996 and a relative viability ([12]; first compound 0.1 µM) of 0.923. The relative viability ([13]; first compound 0.001 µM) was 0.388, the relative viability ([13]; first compound 0.003162 µM) was 0.318 and the relative viability ([13]; first compound 0.01 µM) was 0.303. For the same molecule, the relative viability ([13]; first compound 0.03162 µM) was 0.243, the relative viability ([13]; first compound 0.1 µM) was 0.146 and the relative viability ([14]; first compound 0.001 µM) was 1.03. It also gave a relative viability ([14]; first compound 0.003162 µM) of 1.2, a relative viability ([14]; first compound 0.01 µM) of 1.21 and a relative viability ([14]; first compound 0.03162 µM) of 1.08. The relative viability ([14]; first compound 0.1 µM) was 0.642, the relative viability ([15]; first compound 0.001 µM) was 0.458 and the relative viability ([15]; first compound 0.003162 µM) was 0.539. The relative viability ([15]; first compound 0.01 µM) was 0.556, the relative viability ([15]; first compound 0.03162 µM) was 0.459 and the relative viability ([15]; first compound 0.1 µM) was 0.523. It also gave a relative viability ([16]; first compound 0.001 µM) of 0.828, a relative viability ([16]; first compound 0.003162 µM) of 1.58 and a relative viability ([16]; first compound 0.01 µM) of 1.98. For the same molecule, the relative viability ([16]; first compound 0.03162 µM) was 0.86, the relative viability ([16]; first compound 0.1 µM) was 0.893 and the relative viability ([17]; first compound 0.01 µM) was 0.861. For the same molecule, the relative viability ([17]; first compound 0.03162 µM) was 0.767, the relative viability ([17]; first compound 0.1 µM) was 0.649 and the relative viability ([18]; first compound 0.001 µM) was 0.682. The relative viability ([18]; first compound 0.003162 µM) was 0.683, the relative viability ([18]; first compound 0.01 µM) was 0.718 and the relative viability ([18]; first compound 0.03162 µM) was 0.67. For the same molecule, the relative viability ([18]; first compound 0.1 µM) was 0.619.

Source: the supplement of paper PMC10307832
